Experimental data published in patent US9701662B2, “Herbicidal compounds” (Syngenta Participations AG, priority 2014, dated 2017).

Legend:
Format in all cases: in vivo
Solanum nigrum (SOLNI) [1] = assay: Post-emergence glasshouse herbicide test; conditions: post-emergence (sprayed after 8 days cultivation), 1000 g/h, evaluated after 13 days, five point scale
Procedure: (§1) Seeds of a variety of test species are sown in standard soil in pots (Lolium perenne (LOLPE), Solanum nigrum (SOLNI), Amaranthus retoflexus (AMARE), Setaria faberi (SETFA), Echinochloa crus-galli (ECHCG), Ipomoea hederacea (IPOHE)). After cultivation for one day (pre-emergence) or after 8 days cultivation (post-emergence) under controlled conditions in a glasshouse (at 24/16° C., day/night; 14 hours light; 65% humidity), the plants are sprayed with an aqueous spray solution derived from the formulation of the technical active ingredient in acetone/water (50:50) solution containing 0.5% Tween 20 (polyoxyethelyene sorbitan monolaurate, CAS RN 9005-64-5). Compounds are applied at 1000 g/h. The test plants are then grown in a glasshouse under controlled conditions in a glasshouse (at 24/16° C., day/night; 14 hours light; 65% humidity) and watered twice daily. After 13 days for pre and post-emergence, the test is evaluated for the percentage damage caused to the plant. The biological activities are shown in the following table on a five point scale (5=80-100%; 4=60-79%; 3=40-59%; 2=20-39%; 1=0-19%).

[2] = system: Echinochloa crus-galli (ECHCG); assay: Post-emergence glasshouse herbicide test; conditions: post-emergence (sprayed after 8 days cultivation), 1000 g/h, evaluated after 13 days, five point scale
Procedure: as §1

Lolium perenne (LOLPE) [3] = assay: Post-emergence glasshouse herbicide test; conditions: post-emergence (sprayed after 8 days cultivation), 1000 g/h, evaluated after 13 days, five point scale
Procedure: as §1

Setaria faberi (SETFA) [4] = assay: Post-emergence glasshouse herbicide test; conditions: post-emergence (sprayed after 8 days cultivation), 1000 g/h, evaluated after 13 days, five point scale
Procedure: as §1

[5] = system: Amaranthus retoflexus (AMARE); assay: Post-emergence glasshouse herbicide test; conditions: post-emergence (sprayed after 8 days cultivation), 1000 g/h, evaluated after 13 days, five point scale
Procedure: as §1

[6] = system: Ipomoea hederacea (IPOHE); assay: Post-emergence glasshouse herbicide test; conditions: post-emergence (sprayed after 8 days cultivation), 1000 g/h, evaluated after 13 days, five point scale
Procedure: as §1

Solanum nigrum (SOLNI) [7] = assay: Pre-emergence glasshouse herbicide test; conditions: pre-emergence (sprayed after one day cultivation), 1000 g/h, evaluated after 13 days, five point scale
Procedure: as §1

[8] = system: Echinochloa crus-galli (ECHCG); assay: Pre-emergence glasshouse herbicide test; conditions: pre-emergence (sprayed after one day cultivation), 1000 g/h, evaluated after 13 days, five point scale
Procedure: as §1

Lolium perenne (LOLPE) [9] = assay: Pre-emergence glasshouse herbicide test; conditions: pre-emergence (sprayed after one day cultivation), 1000 g/h, evaluated after 13 days, five point scale
Procedure: as §1

Setaria faberi (SETFA) [10] = assay: Pre-emergence glasshouse herbicide test; conditions: pre-emergence (sprayed after one day cultivation), 1000 g/h, evaluated after 13 days, five point scale
Procedure: as §1

[11] = system: Amaranthus retoflexus (AMARE); assay: Pre-emergence glasshouse herbicide test; conditions: pre-emergence (sprayed after one day cultivation), 1000 g/h, evaluated after 13 days, five point scale
Procedure: as §1

[12] = system: Ipomoea hederacea (IPOHE); assay: Pre-emergence glasshouse herbicide test; conditions: pre-emergence (sprayed after one day cultivation), 1000 g/h, evaluated after 13 days, five point scale
Procedure: as §1

## Cn1nnnc1NC(=O)c1nn(C)c(=O)c(-c2cccc(C(F)(F)F)c2)c1Cl [Compound 1.030]
Solanum nigrum (SOLNI) [1]
  percentage damage caused to the plant, SOLNI, POST Application: 5 (5=80-100%)
[2]
  percentage damage caused to the plant, ECHCG, POST Application: 5 (5=80-100%)
Lolium perenne (LOLPE) [3]
  percentage damage caused to the plant, LOLPE, POST Application: 5 (5=80-100%)
Setaria faberi (SETFA) [4]
  percentage damage caused to the plant, SETFA, POST Application: 5 (5=80-100%)
[5]
  percentage damage caused to the plant, AMARE, POST Application: 5 (5=80-100%)
[6]
  percentage damage caused to the plant, IPOHE, POST Application: 4 (4=60-79%)
Solanum nigrum (SOLNI) [7]
  percentage damage caused to the plant, SOLNI, PRE Application: 5 (5=80-100%)
[8]
  percentage damage caused to the plant, ECHCG, PRE Application: 5 (5=80-100%)
Lolium perenne (LOLPE) [9]
  percentage damage caused to the plant, LOLPE, PRE Application: 5 (5=80-100%)
Setaria faberi (SETFA) [10]
  percentage damage caused to the plant, SETFA, PRE Application: 5 (5=80-100%)
[11]
  percentage damage caused to the plant, AMARE, PRE Application: 5 (5=80-100%)
[12]
  percentage damage caused to the plant, IPOHE, PRE Application: 2 (2=20-39%)

## CCOc1c(C(=O)Nc2nnnn2C)nn(C)c(=O)c1C [Compound 1.009]
Solanum nigrum (SOLNI) [1]
  percentage damage caused to the plant, SOLNI, POST Application: 5 (5=80-100%)
[2]
  percentage damage caused to the plant, ECHCG, POST Application: 5 (5=80-100%)
Lolium perenne (LOLPE) [3]
  percentage damage caused to the plant, LOLPE, POST Application: 4 (4=60-79%)
Setaria faberi (SETFA) [4]
  percentage damage caused to the plant, SETFA, POST Application: 5 (5=80-100%)
[5]
  percentage damage caused to the plant, AMARE, POST Application: 5 (5=80-100%)
[6]
  percentage damage caused to the plant, IPOHE, POST Application: 5 (5=80-100%)
Solanum nigrum (SOLNI) [7]
  percentage damage caused to the plant, SOLNI, PRE Application: 5 (5=80-100%)
[8]
  percentage damage caused to the plant, ECHCG, PRE Application: 4 (4=60-79%)
Lolium perenne (LOLPE) [9]
  percentage damage caused to the plant, LOLPE, PRE Application: 3 (3=40-59%)
Setaria faberi (SETFA) [10]
  percentage damage caused to the plant, SETFA, PRE Application: 3 (3=40-59%)
[11]
  percentage damage caused to the plant, AMARE, PRE Application: 5 (5=80-100%)
[12]
  percentage damage caused to the plant, IPOHE, PRE Application: 5 (5=80-100%)

## Cn1nnnc1NC(=O)c1nn(C)c(=O)c(-c2ccc(Cl)cc2)c1Cl [Compound 1.013]
Solanum nigrum (SOLNI) [1]
  percentage damage caused to the plant, SOLNI, POST Application: 5 (5=80-100%)
[2]
  percentage damage caused to the plant, ECHCG, POST Application: 5 (5=80-100%)
Lolium perenne (LOLPE) [3]
  percentage damage caused to the plant, LOLPE, POST Application: 5 (5=80-100%)
Setaria faberi (SETFA) [4]
  percentage damage caused to the plant, SETFA, POST Application: 3 (3=40-59%)
[5]
  percentage damage caused to the plant, AMARE, POST Application: 3 (3=40-59%)
[6]
  percentage damage caused to the plant, IPOHE, POST Application: 2 (2=20-39%)
Solanum nigrum (SOLNI) [7]
  percentage damage caused to the plant, SOLNI, PRE Application: 5 (5=80-100%)
[8]
  percentage damage caused to the plant, ECHCG, PRE Application: 5 (5=80-100%)
Lolium perenne (LOLPE) [9]
  percentage damage caused to the plant, LOLPE, PRE Application: 5 (5=80-100%)
Setaria faberi (SETFA) [10]
  percentage damage caused to the plant, SETFA, PRE Application: 5 (5=80-100%)
[11]
  percentage damage caused to the plant, AMARE, PRE Application: 5 (5=80-100%)
[12]
  percentage damage caused to the plant, IPOHE, PRE Application: 2 (2=20-39%)

## Cn1nnnc1NC(=O)c1nn(C)c(=O)c(-c2ccccc2)c1Cl [Compound 1.010]
Solanum nigrum (SOLNI) [1]
  percentage damage caused to the plant, SOLNI, POST Application: 5 (5=80-100%)
[2]
  percentage damage caused to the plant, ECHCG, POST Application: 5 (5=80-100%)
Lolium perenne (LOLPE) [3]
  percentage damage caused to the plant, LOLPE, POST Application: 4 (4=60-79%)
Setaria faberi (SETFA) [4]
  percentage damage caused to the plant, SETFA, POST Application: 5 (5=80-100%)
[5]
  percentage damage caused to the plant, AMARE, POST Application: 5 (5=80-100%)
[6]
  percentage damage caused to the plant, IPOHE, POST Application: 4 (4=60-79%)
Solanum nigrum (SOLNI) [7]
  percentage damage caused to the plant, SOLNI, PRE Application: 5 (5=80-100%)
[8]
  percentage damage caused to the plant, ECHCG, PRE Application: 5 (5=80-100%)
Lolium perenne (LOLPE) [9]
  percentage damage caused to the plant, LOLPE, PRE Application: 5 (5=80-100%)
Setaria faberi (SETFA) [10]
  percentage damage caused to the plant, SETFA, PRE Application: 5 (5=80-100%)
[11]
  percentage damage caused to the plant, AMARE, PRE Application: 5 (5=80-100%)
[12]
  percentage damage caused to the plant, IPOHE, PRE Application: 1 (1=0-19%)

## CCOc1c(C(=O)Nc2nnnn2C)nn(C)c(=O)c1-c1ccc(Cl)c(Cl)c1 [Compound 1.032]
Solanum nigrum (SOLNI) [1]
  percentage damage caused to the plant, SOLNI, POST Application: 5 (5=80-100%)
[2]
  percentage damage caused to the plant, ECHCG, POST Application: 5 (5=80-100%)
Lolium perenne (LOLPE) [3]
  percentage damage caused to the plant, LOLPE, POST Application: 4 (4=60-79%)
Setaria faberi (SETFA) [4]
  percentage damage caused to the plant, SETFA, POST Application: 5 (5=80-100%)
[5]
  percentage damage caused to the plant, AMARE, POST Application: 5 (5=80-100%)
[6]
  percentage damage caused to the plant, IPOHE, POST Application: 4 (4=60-79%)
Solanum nigrum (SOLNI) [7]
  percentage damage caused to the plant, SOLNI, PRE Application: 5 (5=80-100%)
[8]
  percentage damage caused to the plant, ECHCG, PRE Application: 5 (5=80-100%)
Lolium perenne (LOLPE) [9]
  percentage damage caused to the plant, LOLPE, PRE Application: 4 (4=60-79%)
Setaria faberi (SETFA) [10]
  percentage damage caused to the plant, SETFA, PRE Application: 5 (5=80-100%)
[11]
  percentage damage caused to the plant, AMARE, PRE Application: 5 (5=80-100%)
[12]
  percentage damage caused to the plant, IPOHE, PRE Application: 4 (4=60-79%)

## Cn1nnnc1NC(=O)c1nn(C)c(=O)c(-c2ccc(Cl)c(Cl)c2)c1Cl [Compound 1.019]
Solanum nigrum (SOLNI) [1]
  percentage damage caused to the plant, SOLNI, POST Application: 5 (5=80-100%)
[2]
  percentage damage caused to the plant, ECHCG, POST Application: 5 (5=80-100%)
Lolium perenne (LOLPE) [3]
  percentage damage caused to the plant, LOLPE, POST Application: 5 (5=80-100%)
Setaria faberi (SETFA) [4]
  percentage damage caused to the plant, SETFA, POST Application: 5 (5=80-100%)
[5]
  percentage damage caused to the plant, AMARE, POST Application: 3 (3=40-59%)
[6]
  percentage damage caused to the plant, IPOHE, POST Application: 4 (4=60-79%)
Solanum nigrum (SOLNI) [7]
  percentage damage caused to the plant, SOLNI, PRE Application: 5 (5=80-100%)
[8]
  percentage damage caused to the plant, ECHCG, PRE Application: 5 (5=80-100%)
Lolium perenne (LOLPE) [9]
  percentage damage caused to the plant, LOLPE, PRE Application: 5 (5=80-100%)
Setaria faberi (SETFA) [10]
  percentage damage caused to the plant, SETFA, PRE Application: 5 (5=80-100%)
[11]
  percentage damage caused to the plant, AMARE, PRE Application: 5 (5=80-100%)
[12]
  percentage damage caused to the plant, IPOHE, PRE Application: 3 (3=40-59%)

## Cn1nnnc1NC(=O)c1nn(C)c(=O)c(-c2ccc(C(F)(F)F)cc2)c1Cl [Compound 1.023]
Solanum nigrum (SOLNI) [1]
  percentage damage caused to the plant, SOLNI, POST Application: 5 (5=80-100%)
[2]
  percentage damage caused to the plant, ECHCG, POST Application: 5 (5=80-100%)
Lolium perenne (LOLPE) [3]
  percentage damage caused to the plant, LOLPE, POST Application: 5 (5=80-100%)
Setaria faberi (SETFA) [4]
  percentage damage caused to the plant, SETFA, POST Application: 5 (5=80-100%)
[5]
  percentage damage caused to the plant, AMARE, POST Application: 2 (2=20-39%)
[6]
  percentage damage caused to the plant, IPOHE, POST Application: 2 (2=20-39%)
Solanum nigrum (SOLNI) [7]
  percentage damage caused to the plant, SOLNI, PRE Application: 5 (5=80-100%)
[8]
  percentage damage caused to the plant, ECHCG, PRE Application: 5 (5=80-100%)
Lolium perenne (LOLPE) [9]
  percentage damage caused to the plant, LOLPE, PRE Application: 5 (5=80-100%)
Setaria faberi (SETFA) [10]
  percentage damage caused to the plant, SETFA, PRE Application: 5 (5=80-100%)
[11]
  percentage damage caused to the plant, AMARE, PRE Application: 4 (4=60-79%)
[12]
  percentage damage caused to the plant, IPOHE, PRE Application: 2 (2=20-39%)
